The target in assay [1] is Disintegrin and metalloproteinase domain-containing protein 17 (Homo sapiens, UniProt P78536). Nature of the assay: exosite inhibitors of ADAM17, dose response, biochemical (AID 743260).
The nature of assay [2]: ADAM10 protease inhibitors, dose response, selectivity assay for ADAM17 exosite inhibitor project, biochemical, FRET peptide substrate, recombinant human ADAM10 (AID 743259).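 Note: ADAM10 enzyme cleaving a FRET peptide substrate.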
The nature of assay [3]: intracellular Trypanosoma cruzi inhibitors in host cells – cell-based, plate reader, cherry-pick samples, set 3, dose response (AID 651818).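 Note: compounds incubated with infected cells for about four days.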 The assay is classed as functional.
Assay [4] can be described thus: MC4R antagonists, dose response, counter-screen for LGR2 antagonist project, cell-based, plate reader, cherry pick (AID 743444).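 Note: transfected HEK 293 cells stimulated with alpha-MSH peptide; potency of inhibitors of the alpha-MSH evoked signal.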 It is filed as functional. For orientation: The purpose of a counterscreen is to sort out artefacts and off-target activity.
Assay [5] can be described thus: HepG2 cell cytotoxicity, dose response, cytotoxicity control, plate reader, cherry-pick, antagonist series (AID 743416). The assay is classed as functional, cell-based.
The nature of assay [6]: LGR2 antagonists, dose response, cell-based, HEK293, CRE-luciferase reporter, cherry pick, set 2 (AID 743343).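 Note: transfected cells were stimulated with diluted bursicon conditioned medium after compound addition.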 It is filed as functional. On the technique in general: A reporter such as luciferase makes a cellular process visible.
Assay [7] can be described thus: HEK293 cell cytotoxicity, dose response, cytotoxicity control, plate reader, cherry-picked samples (AID 743446). It is filed as functional, cell-based.
Assay [8] can be described thus: A549 cell cytotoxicity, dose response, cytotoxicity control, plate reader, cherry-pick, antagonist series (AID 743412). The assay is classed as functional, cell-based.
Assay [9] in a line: half-maximal inhibitory concentration for glucagon-like peptide-1 release, STC-1 cell line, dose-response (AID 1117345). The assay is classed as functional, cell-based.
Assay [10] is described as follows: Glucagon-like peptide 1 release potency, NCI-H716 cell line, dose-response, half-maximal inhibitory concentration (AID 1117344). The assay is classed as functional, cell-based.
Assay [11] has as its target Endoplasmic reticulum aminopeptidase 1 (Homo sapiens, UniProt Q9NZ08). Nature of the assay: ERAP1 aminopeptidase inhibitors, dose response, biochemical, cherry-pick, set 2, plate reader (AID 743314).
A short description of assay [12]: P. falciparum Dd2 growth inhibitors, dose response, SYBR Green, dry powder samples, set 9 (AID 1159568). The assay is classed as functional, cell-based.
The target of assay [13] is RNA-editing ligase 1, mitochondrial (Trypanosoma brucei brucei, UniProt P86926). Nature of the assay: TbREL1 ligase inhibitors, dose response, biochemical, fluorescence, Trypanosoma brucei (AID 1117295). The assay is classed as functional.
A short description of assay [14]: cytotoxicity in OV-90 ovarian cancer cells, dose response, PAX8 inhibitor project, cell-based, plate reader, dry powder, SA8 (AID 743149). It is filed as functional.
A short description of assay [15]: cytotoxicity in COV362 ovarian cancer cells, dose response, cytotoxicity control for PAX8 inhibitor project, cell-based, plate reader, dry powder, SA12 (AID 743144). The assay is classed as functional.
Assay [16] is described as follows: PAX5 activity inhibitors, dose response, selectivity assay for PAX8 inhibitor project, cell-based, plate reader, dry powder samples (AID 743047).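 Note: HEK293 cells carrying a Pax5 driven CD19 promoter luciferase reporter; potency of inhibitors that lower reporter luminescence.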 It is filed as functional.
A further assay has as its target Paired box protein Pax-8 (Homo sapiens, UniProt Q06710). Nature of the assay: inhibitors of PAX8-driven TPO luciferase reporter, dose response, RMG-I cells, cherry-pick (AID 687027).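 Note: luciferase reporter driven by Pax8 target thyroperoxidase promoter measured by SteadyGlo luminescence.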 The assay is classed as functional, cell-based.
Assay [17] in a line: PAX2 cell-based inhibition, dose response, selectivity assay for PAX8 inhibitor project, plate reader, dry powder samples (AID 743048).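 Note: HEK293 cells carrying a WT1 promoter luciferase reporter driven by expressed Pax2; potency is for inhibition of Pax2 driven reporter signal.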 It is filed as functional.
The nature of assay [18]: NIH:OVCAR-3 ovarian cancer cell cytotoxicity, dose response, PAX8 inhibitor project, plate reader, dry powder samples (AID 743044). The assay is classed as functional, cell-based.
Assay [19] can be described thus: cytotoxicity dependent on PAX8, dose response, cell-based, plate reader, dry powder (AID 743049). It is filed as functional.
Assay [20] is described as follows: cytotoxicity in COV434 cells, dose response, cytotoxicity control for PAX8 inhibitor project, cell-based, plate reader, dry powder, SA7 (AID 743145). The assay is classed as functional.
The target of assay [21] is T1, Scavenger receptor class B member 1 (Mus musculus, UniProt Q61009).
T1 sequence (Q61009 whole entry): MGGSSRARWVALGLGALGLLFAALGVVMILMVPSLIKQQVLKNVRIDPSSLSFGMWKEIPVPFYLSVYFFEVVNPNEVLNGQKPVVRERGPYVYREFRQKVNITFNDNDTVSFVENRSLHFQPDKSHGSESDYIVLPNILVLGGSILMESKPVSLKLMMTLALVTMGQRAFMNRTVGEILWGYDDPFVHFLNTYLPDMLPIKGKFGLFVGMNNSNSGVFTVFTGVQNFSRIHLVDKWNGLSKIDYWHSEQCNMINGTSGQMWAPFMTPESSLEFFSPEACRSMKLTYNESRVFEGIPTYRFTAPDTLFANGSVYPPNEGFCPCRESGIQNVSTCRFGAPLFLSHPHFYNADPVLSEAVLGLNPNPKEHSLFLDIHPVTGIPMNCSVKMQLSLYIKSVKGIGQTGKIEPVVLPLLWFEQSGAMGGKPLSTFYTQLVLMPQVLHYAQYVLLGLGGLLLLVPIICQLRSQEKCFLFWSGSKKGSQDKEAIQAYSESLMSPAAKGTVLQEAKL
Nature of the assay: inhibitors of SR-BI-mediated HDL uptake, dose response, cell-based, ldlA[mSR-BI] CHO, DiI fluorescence, dry powder, set 10 (AID 624029). The assay is classed as functional.

In assay [22] the target is T1, Scavenger receptor class B member 1. Nature of the assay: inhibitors of SR-BI dependent HDL uptake, dose response, ldlA[mSR-BI] CHO cells, fluorescence plate reader, dry powder, set 9 (AID 623880). It is filed as functional, cell-based.
The nature of assay [23]: growth inhibition of intracellular T. cruzi, dose response, cell-based, plate reader, dry powder samples (AID 651845). It is filed as functional.
A short description of assay [24]: T. cruzi intracellular amastigote growth inhibition, dose response, imaging, CA-I/72 strain, bovine embryo skeletal muscle, dry powder (AID 651885). The assay is classed as functional, cell-based.

We go through 11 compounds from ChEMBL document CHEMBL1201862, “PubChem BioAssay data set” (2004).

Calls of active or inactive are those of the source.

Endoplasmic reticulum aminopeptidase 1, sequence (Q9NZ08 whole entry): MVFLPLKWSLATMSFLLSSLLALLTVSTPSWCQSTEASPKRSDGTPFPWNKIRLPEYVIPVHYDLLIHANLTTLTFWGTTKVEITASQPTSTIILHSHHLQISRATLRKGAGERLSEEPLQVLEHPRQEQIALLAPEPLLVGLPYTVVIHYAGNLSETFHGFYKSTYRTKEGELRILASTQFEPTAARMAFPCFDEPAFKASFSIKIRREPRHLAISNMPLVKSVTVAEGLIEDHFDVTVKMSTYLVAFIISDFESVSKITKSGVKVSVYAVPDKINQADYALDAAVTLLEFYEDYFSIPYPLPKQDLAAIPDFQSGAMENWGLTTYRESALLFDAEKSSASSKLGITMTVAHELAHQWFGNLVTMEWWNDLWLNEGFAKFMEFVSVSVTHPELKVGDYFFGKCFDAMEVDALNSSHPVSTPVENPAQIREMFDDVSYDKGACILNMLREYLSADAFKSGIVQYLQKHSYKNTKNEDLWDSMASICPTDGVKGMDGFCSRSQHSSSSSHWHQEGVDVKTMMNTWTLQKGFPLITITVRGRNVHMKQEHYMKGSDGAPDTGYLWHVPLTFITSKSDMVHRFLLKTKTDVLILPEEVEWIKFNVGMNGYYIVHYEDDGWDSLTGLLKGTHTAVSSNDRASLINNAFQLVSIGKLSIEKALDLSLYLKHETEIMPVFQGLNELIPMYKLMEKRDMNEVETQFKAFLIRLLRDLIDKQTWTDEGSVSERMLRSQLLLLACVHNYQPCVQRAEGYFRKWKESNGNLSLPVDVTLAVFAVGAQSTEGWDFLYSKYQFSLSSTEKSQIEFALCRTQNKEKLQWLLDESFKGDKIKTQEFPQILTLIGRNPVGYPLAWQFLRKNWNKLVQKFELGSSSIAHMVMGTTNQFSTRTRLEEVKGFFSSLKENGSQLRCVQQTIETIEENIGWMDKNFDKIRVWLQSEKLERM
Paired box protein Pax-8, sequence (Q06710 whole entry): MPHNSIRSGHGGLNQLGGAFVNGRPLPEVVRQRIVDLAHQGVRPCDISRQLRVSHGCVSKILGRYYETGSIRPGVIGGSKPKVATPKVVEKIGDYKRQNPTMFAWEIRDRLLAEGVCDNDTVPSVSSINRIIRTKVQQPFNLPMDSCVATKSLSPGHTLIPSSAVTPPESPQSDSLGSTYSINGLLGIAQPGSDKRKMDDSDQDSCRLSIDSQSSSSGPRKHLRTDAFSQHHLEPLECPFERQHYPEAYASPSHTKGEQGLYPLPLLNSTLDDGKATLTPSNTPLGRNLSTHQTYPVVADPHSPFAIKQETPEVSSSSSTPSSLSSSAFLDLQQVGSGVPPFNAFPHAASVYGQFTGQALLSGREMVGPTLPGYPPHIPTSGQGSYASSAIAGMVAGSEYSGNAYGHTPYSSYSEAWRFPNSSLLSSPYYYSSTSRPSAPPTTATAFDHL
Disintegrin and metalloproteinase domain-containing protein 17, sequence (P78536 whole entry, the tested form may be a part): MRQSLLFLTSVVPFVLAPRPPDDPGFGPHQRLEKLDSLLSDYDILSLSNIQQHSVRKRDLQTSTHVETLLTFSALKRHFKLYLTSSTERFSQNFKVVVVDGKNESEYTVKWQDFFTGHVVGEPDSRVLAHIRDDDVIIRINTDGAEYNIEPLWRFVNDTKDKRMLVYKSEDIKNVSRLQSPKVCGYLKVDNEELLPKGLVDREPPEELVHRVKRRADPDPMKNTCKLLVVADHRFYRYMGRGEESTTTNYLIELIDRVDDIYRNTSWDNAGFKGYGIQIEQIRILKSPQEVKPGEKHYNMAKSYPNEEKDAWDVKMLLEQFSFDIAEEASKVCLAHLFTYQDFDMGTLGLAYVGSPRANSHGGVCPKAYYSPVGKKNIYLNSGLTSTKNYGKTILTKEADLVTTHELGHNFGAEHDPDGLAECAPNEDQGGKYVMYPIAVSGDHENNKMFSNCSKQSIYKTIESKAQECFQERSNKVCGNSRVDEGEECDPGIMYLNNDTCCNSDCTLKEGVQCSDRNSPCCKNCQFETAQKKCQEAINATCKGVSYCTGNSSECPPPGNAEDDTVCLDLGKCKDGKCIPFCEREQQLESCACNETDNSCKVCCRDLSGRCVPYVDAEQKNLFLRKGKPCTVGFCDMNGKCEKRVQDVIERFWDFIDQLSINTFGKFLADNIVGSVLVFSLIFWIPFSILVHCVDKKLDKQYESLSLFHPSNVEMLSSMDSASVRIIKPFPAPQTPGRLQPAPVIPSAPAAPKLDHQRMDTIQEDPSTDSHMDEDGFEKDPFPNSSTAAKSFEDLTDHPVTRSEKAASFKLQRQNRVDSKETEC
RNA-editing ligase 1, mitochondrial, sequence (P86926 whole entry): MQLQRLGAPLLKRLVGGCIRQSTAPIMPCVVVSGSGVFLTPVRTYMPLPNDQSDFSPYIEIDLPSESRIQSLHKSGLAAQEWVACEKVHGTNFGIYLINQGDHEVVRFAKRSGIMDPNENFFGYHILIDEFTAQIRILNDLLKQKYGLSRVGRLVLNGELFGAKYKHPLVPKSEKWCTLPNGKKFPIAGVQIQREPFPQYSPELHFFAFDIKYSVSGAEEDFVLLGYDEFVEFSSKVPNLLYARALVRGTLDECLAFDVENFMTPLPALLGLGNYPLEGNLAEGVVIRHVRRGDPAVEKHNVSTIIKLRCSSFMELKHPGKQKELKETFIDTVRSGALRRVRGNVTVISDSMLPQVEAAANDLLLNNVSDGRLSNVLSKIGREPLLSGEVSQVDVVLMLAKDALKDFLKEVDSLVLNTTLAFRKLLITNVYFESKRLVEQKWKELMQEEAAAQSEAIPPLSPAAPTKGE

Consider `CCC(c1nnnn1Cc1ccccc1)N1CCC2(CC1)C(=O)NCN2c1ccccc1` (stereo not given), for which the IC50 in [1] and in assay [2] was > 69.4 µM (inactive) throughout.
As to `COc1ccc(CN(C)C[C@@H]2Oc3c(NC(=O)Nc4ccc(C(F)(F)F)cc4)cccc3C(=O)N([C@@H](C)CO)C[C@H]2C)cc1`, the AC50 (usually the concentration giving half of the maximal activity seen) in assay [3] is 2.27 µM (active); in assay [4], 11 µM (active); in assay [5], 7.95 µM (active); in assay [6] it was 16.6 µM (active); in [7], 3.5 µM (active); in [8], 13.6 µM (active).
As to `COc1cc(Nc2c(C#N)cnc3cc(OCCCN4CCN(C)CC4)c(OC)cc23)c(Cl)cc1Cl`, the IC50 (in general, the point on the concentration scale where inhibition reaches its midpoint) in assay [9] is > 40 µM (inactive); in assay [10], 25.1 µM (inactive).
With `N#C[C@@H]1[C@H](c2ccc(C#Cc3cccc(F)c3)cc2)[C@@H](CO)N1C(=O)C1CCC1`, the AC50 was 8.46 µM (active) in [4], > 47 µM (inactive) in assay [5], 9.75 µM (active) in [6] and 28.2 µM (active) in assay [8].
Turning to `CCNC(=O)[C@H]1[C@H](CO)[C@H]2Cn3c(ccc(/C=C/c4ccccc4)c3=O)[C@@H]1N2C(=O)C1CCCC1`, the AC50 in [11] is 7.81 µM (active).
Consider `CCCNC(=O)N1[C@H](C#N)[C@H](c2ccccc2-c2ccc(OC)cc2)[C@@H]1CO`, for which the concentration at half-maximal activity (AC50) in assay [12] is 3.54 µM (active).
Take `COC(=O)C1=C(C)N(Cc2cccc(C(F)(F)F)c2)C(NCc2cccc(C(F)(F)F)c2)=NC1c1ccccc1C(F)(F)F` (stereo not given): the IC50 in assay [13] is > 96.6 µM (inactive).
For the compound `C[C@H]1CN([C@@H](C)CO)C(=O)c2cccc(NC(=O)c3ccc(-c4nccs4)cc3)c2O[C@@H]1CN(C)C(=O)Nc1ccc(C(F)(F)F)cc1`, the AC50 in assay [12] was 9.87 µM (active).
As to `Cc1ccc(S(=O)(=O)Nc2ccc3c(c2)C(=O)N([C@@H](C)CO)C[C@H](C)[C@@H](CN(C)C(=O)Nc2cccc4ccccc24)OCCCC[C@@H](C)O3)cc1`, the AC50 was 22.8 µM (active) in [14]; 37.3 µM (active) in assay [15]; 8.21 µM (active) in assay [16]; 4.15 µM (active) at Paired box protein Pax-8; 7.25 µM (active) in [17]; 13.3 µM (active) in assay [18]. Besides, the AC50 was 18.2 µM (active) in assay [19] and 0.0021 µM (active) in [20].
As to `C[C@@H]1CN([C@H](C)CO)C(=O)c2cc(NC(=O)C3CCCCC3)ccc2O[C@H]1CN(C)C(=O)c1ccc(Cl)cc1`, the AC50 in [21] is > 70 µM (inactive); in [22] it was 38.9 µM (active).
As to `C[C@@H]1CN([C@@H](C)CO)C(=O)c2cccc(NC(=O)c3ccncc3)c2O[C@H]1CN(C)Cc1ccccc1Cl`, the AC50 in assay [23] was 0.158 µM (active). In assay [24], the IC50 is 0.0114 µM (active).
